Experimental data taken from ChEMBL document CHEMBL1152950, “Cytotoxic activity and inhibitory effect on nitric oxide production of triterpene saponins from the roots of Physospermum verticillatum (Waldst & Kit) (Apiaceae)” (Bioorg Med Chem, 2009).
Blank lines part the entries; values can stand above or below the molecule they belong to.

What was measured:
RAW264.7 [1] = assay: Antiinflammatory activity in LPS-stimulated mouse RAW264.7 cells assessed as inhibition of NO production after 24 hrs by Griess reagent method; format: functional, cell-based; settings: for IC50: RAW264.7, 24 h
[2] = tested on: Radical scavenging activity; assay: Antioxidant activity assessed as DPPH radical scavenging activity by spectrophotometry; format: functional
ACHN = assay: Cytotoxicity against human ACHN cells after 48 hrs by SRB assay; format: functional, cell-based
A-375 = assay: Cytotoxicity against human A375 cells after 48 hrs by SRB assay; format: functional, cell-based; settings: for IC50: A-375, 48 h
C32 = assay: Cytotoxicity against human C32 cells after 48 hrs by SRB assay; format: functional, cell-based; settings: for IC50: C32, 48 h
MCF7 [3] = assay: Cytotoxicity against human MCF7 cells after 48 hrs by SRB assay; format: functional, cell-based; settings: MCF7, 48 h
LNCaP = assay: Cytotoxicity against human LNCAP cells after 48 hrs by SRB assay; format: functional, cell-based
A549 = assay: Cytotoxicity against human A549 cells after 48 hrs by SRB assay; format: functional, cell-based; settings: A549, 48 h
[4] = Cytotoxicity against human Huh-7D12 cells after 48 hrs by SRB assay; format: functional, cell-based; settings: Huh-7D12, 48 h
COR-L23 = assay: Cytotoxicity against human COR-L23 cells after 48 hrs by SRB assay; format: functional, cell-based; settings: for IC50: COR-L23, 48 h
Caco-2 = assay: Cytotoxicity against human Caco-2 cells after 48 hrs by SRB assay; format: functional, cell-based; settings: for IC50: Caco-2, 48 h
[5] = Cytotoxicity against human 142BR cells after 48 hrs by SRB assay; format: cell-based; settings: for IC50: Homo sapiens; for Activity: human
RAW264.7 [6] = assay: Cytotoxicity against mouse RAW264.7 cells by MTT assay; format: cell-based
HL-60 = assay: Cytotoxicity against human HL60 cells; format: functional, cell-based
HT-29 = assay: Cytotoxicity against human HT-29 cells; format: functional, cell-based
MCF7 [7] = assay: Cytotoxicity against human MCF7 cells; format: functional, cell-based
SK-OV-3 = assay: Cytotoxicity against human SKOV3 cells; format: functional, cell-based

Compound: COc1ccc2c(c1)c(CC(=O)O)c(C)n2C(=O)c1ccc(Cl)cc1
Activity (RAW264.7 [1]): Dose-dependent effect

IC50 ([2]; read-out: IC50): 0.002 µM
Compound: O=C1O[C@H]([C@@H](O)CO)C(O)=C1O [ASCORBIC ACID]

IC50 (RAW264.7 [1]): 4.2 µM
IC50 [2]: Not Active
Compound: C[C@H]1O[C@@H](O[C@H]2CC[C@@]3(C)[C@@H](CC[C@]4(C)[C@@H]3C=C[C@]35OC[C@@]6(CCC(C)(C)C[C@H]63)[C@@H](O)C[C@]54C)[C@]2(C)CO)[C@H](O[C@@H]2O[C@H](CO)[C@@H](O)[C@H](O)[C@H]2O)[C@@H](O[C@@H]2O[C@H](CO)[C@@H](O)[C@H](O)[C@H]2O)[C@H]1O [BUDDLEJASAPONIN IV]
Activity (ACHN): Dose-dependent effect
IC50 (ACHN): 7.9 µM
Activity (A-375): Dose-dependent effect
IC50 (A-375): 14.6 µM
Activity (C32): Dose-dependent effect
IC50 (C32): 26.9 µM
IC50 (MCF7 [3]): > 50 µM
IC50 (LNCaP): > 50 µM
IC50 (A549): 38.3 µM
IC50 [4]: > 50 µM
Activity (COR-L23): Dose-dependent effect
IC50 (COR-L23): 0.4 µM
Activity (Caco-2): Dose-dependent effect
IC50 (Caco-2): 40.7 µM
IC50 [5]: > 50 µM
Activity [5]: Dose-dependent effect
Activity (RAW264.7 [1]): Dose-dependent effect
IC50 (RAW264.7 [6]): 10.6 µM

Compound: CC1(C)C[C@@H]2C3=CC[C@@H]4[C@@]5(C)CC[C@H](O[C@H]6OC[C@H](O)[C@H](O[C@@H]7O[C@H](CO)[C@@H](O)[C@H](O)[C@H]7O)[C@H]6O)C(C)(C)[C@@H]5CC[C@@]4(C)[C@]3(C)C[C@H](O)[C@@]2(CO)[C@H](OC(=O)c2ccccc2)C1 [GLOCHIERIOSIDE A]
IC50 (HL-60): 5.5 µM
IC50 (HT-29): 6.8 µM
IC50 (MCF7 [7]): 29.1 µM
IC50 (SK-OV-3): 22.7 µM

Compound: CC1(C)C[C@@H]2C3=CC[C@@H]4[C@@]5(C)CC[C@H](O[C@@H]6OC[C@@H](O)[C@H](O[C@@H]7O[C@H](CO)[C@@H](O)[C@H](O)[C@H]7O)[C@H]6O)C(C)(C)[C@@H]5CC[C@@]4(C)[C@]3(C)C[C@H](O)[C@@]2(CO)[C@H](OC(=O)c2ccccc2)C1 [GLOCHIERIOSIDE B]
IC50 (HL-60): 6.6 µM
IC50 (HT-29): 18.6 µM
IC50 (MCF7 [7]): 36.1 µM
IC50 (SK-OV-3): 16 µM

Compound: CC(=O)O[C@H]1C(=O)[C@@]2(C)[C@H]([C@H](OC(=O)c3ccccc3)[C@]3(O)C[C@H](OC(=O)[C@H](O)[C@@H](NC(=O)c4ccccc4)c4ccccc4)C(C)=C1C3(C)C)[C@]1(OC(C)=O)CO[C@@H]1C[C@@H]2O [PACLITAXEL]
Activity (ACHN): Dose-dependent effect
Activity (A-375): Dose-dependent effect
Activity (C32): Dose-dependent effect
IC50 (MCF7 [3]): 0.08 µM
Activity (COR-L23): Dose-dependent effect
Activity (Caco-2): Dose-dependent effect
Activity [5]: Dose-dependent effect

IC50 (RAW264.7 [1]): 102 µM
IC50 [2]: Not Active
Compound: C[C@H]1O[C@@H](O[C@H]2CC[C@@]3(C)[C@@H](CC[C@]4(C)[C@@H]3C=C[C@]35OC[C@@]6(CCC(C)(C)C[C@H]63)[C@@H](O)C[C@]54C)[C@]2(C)CO)[C@H](O)[C@@H](O[C@@H]2O[C@H](CO)[C@@H](O)[C@H](O)[C@H]2O)[C@H]1O [SAIKOSAPONIN A]
Activity (ACHN): Dose-dependent effect
IC50 (ACHN): > 50 µM
Activity (A-375): Dose-dependent effect
IC50 (A-375): 23.9 µM
Activity (C32): Dose-dependent effect
IC50 (C32): 43.5 µM
IC50 (MCF7 [3]): > 50 µM
IC50 (LNCaP): > 50 µM
IC50 (A549): 17.7 µM
IC50 [4]: > 50 µM
Activity (COR-L23): Dose-dependent effect
IC50 (COR-L23): 0.6 µM
Activity (Caco-2): Dose-dependent effect
IC50 (Caco-2): 17.9 µM
IC50 [5]: > 50 µM
Activity [5]: Dose-dependent effect
Activity (RAW264.7 [1]): Dose-dependent effect
IC50 (RAW264.7 [6]): > 200 µM

IC50 (RAW264.7 [1]): 10.4 µM
IC50 [2]: Not Active
Compound: C[C@H]1O[C@@H](O[C@H]2CC[C@@]3(C)[C@@H](CC[C@]4(C)[C@@H]3C=C[C@]35OC[C@@]6(CCC(C)(C)C[C@H]63)[C@@H](O)C[C@]54C)[C@]2(C)CO)[C@H](O)[C@@H](O[C@@H]2O[C@H](CO)[C@@H](O)[C@H](O[C@@H]3O[C@H](CO)[C@@H](O)[C@H](O)[C@H]3O[C@@H]3O[C@H](CO)[C@@H](O)[C@H](O)[C@H]3O)[C@H]2O)[C@H]1O [SONGAROSAPONIN D]
Activity (ACHN): Dose-dependent effect
IC50 (ACHN): 37.2 µM
Activity (A-375): Dose-dependent effect
IC50 (A-375): 12.4 µM
Activity (C32): Dose-dependent effect
IC50 (C32): 14 µM
IC50 (MCF7 [3]): > 50 µM
IC50 (LNCaP): > 50 µM
IC50 (A549): 41.1 µM
IC50 [4]: > 50 µM
Activity (COR-L23): Dose-dependent effect
IC50 (COR-L23): 0.4 µM
Activity (Caco-2): Dose-dependent effect
IC50 (Caco-2): 16.7 µM
IC50 [5]: > 50 µM
Activity [5]: Dose-dependent effect
Activity (RAW264.7 [1]): Dose-dependent effect
IC50 (RAW264.7 [6]): 56.1 µM

Compound: CC[C@]1(O)C[C@@H]2CN(CCc3c([nH]c4ccccc34)[C@@](C(=O)OC)(c3cc4c(cc3OC)N(C)[C@H]3[C@@](O)(C(=O)OC)[C@H](OC(C)=O)[C@]5(CC)C=CCN6CC[C@]43[C@@H]65)C2)C1.O=S(=O)(O)O [VINBLASTINE SULFATE]
Activity (ACHN): Dose-dependent effect
IC50 (ACHN): 22.7 µM
Activity (A-375): Dose-dependent effect
IC50 (A-375): 7.2 µM
Activity (C32): Dose-dependent effect
IC50 (C32): 3 µM
IC50 (LNCaP): 29.3 µM
IC50 [4]: 45.6 µM
Activity (COR-L23): Dose-dependent effect
IC50 (COR-L23): 45.5 µM
Activity (Caco-2): Dose-dependent effect
IC50 (Caco-2): 69 µM
IC50 [5]: 37.6 µM
Activity [5]: Dose-dependent effect
